These results are taken from patent publication US20070135438A1, “INHIBITORS OF HISTONE DEACETYLASE FOR THE TREATMENT OF DISEASE” (KALYPSYS, INC., priority 2005, published 2007).

Assay [1] relates to HDAC in cells. The assay can be described thus: Cellular HDAC inhibition (cellular histone hyperacetylation assays). The class given is cell-based. The settings on record: cellular assay, cell line not stated. The method, then:
2) Cellular Histone Hyperacetylation Assays:
These two secondary assays evaluates a compound's ability to inhibit HDAC in cells by measuring cellular histone acetylation levels. The cytoblot facilitates quantitative EC50 information for cellular HDAC inhibition. Transformed cell lines (e.g. HeLa, A549, MCF-7) are cultured under standard media and culture conditions prior to plating.
Cells (approx. 2,500/well) are allowed to adhere 10-24 hours to wells of a 384-well Greiner PS assay plate in media containing 1-5% serum. Cells are treated with appropriate compound and specific concentrations for 0 to 24 hours. Cells are washed once with PBS (60 μL) and then fixed (95% ethanol, 5% acetic acid or 2% PFA) for 1 minute at RT (30 μL). Cells are blocked with 1% BSA for 1 hour and washed and stained with antibody (e.g. anti-Acetylated Histone H3, Upstate Biotechnology), followed by washing and incubation with an appropriate secondary antibody conjugated to HRP or fluorophore. For luminescence assays, signal is generated using Luminol substrate (Santa Cruz Biotechnology) and detected using an Aquest plate reader (Molecular Devices).
Cells (4×10^5/well) are plated into Corning 6-well dish and allowed to adhere overnight. Cells are treated with compound at appropriate concentration for 12-18 hours at 37° C. Cells are washed with PBS on ice. Cells are dislodged with rubber policeman and lysed in buffer containing 25 mM Tris, pH7.6; 150 mM NaCl, 25 mM MgCl2, 1% Tween-20, and nuclei collected by centrifugation (7500 g). Nuclei are washed once in 25 mM Tris, pH7.6; 10 mM EDTA, collected by centrifugation (7500 g). Supernatant is removed and histones are extracted using 0.4 M HCl. Samples are centrifuged at 14000 g and supernatants are precipitated in 1 ml cold acetone. The histone pellet is dissolved in water and histones are separated and analyzed by SDS-PAGE Coomassie and immunoblotting (anti-acetylated histone antibodies, Upstate Biotechnology) using standard techniques.

In assay [2] the test system is HDAC. The assay can be described thus: In vitro HDAC-inhibition assay (Fluor de Lys fluorescent substrate). The format is biochemical. As to conditions: HDAC enzyme source. The method, then:
1) In Vitro HDAC-Inhibition Assay:
This assay measures a compound's ability to inhibit acetyl-lysine deacetylation in vitro and was used as both a primary screening method as well as for IC50 determinations of confirmed inhibitors. The assay is performed in vitro using an HDAC enzyme source (e.g. partially purified nuclear extract or immunopurified HDAC complexes) and a proprietary fluorescent substrate/developer system (HDAC Quantizyme Fluor de Lys Fluorescent Activity Assay, BIOMOL). The assay is run in 1,536-well Greiner white-bottom plates using the following volumes and order of addition:
Step 1: Enzyme (2.5 μL) source added to plate (from refrigerated container)
Step 2: Compounds (50 nL) added with pin transfer device
Step 3: Fluor de Lys (2.5 μL) substrate added, incubate at RT, 30 minutes
Step 4: Developer (5 μL) solution is added (containing TSA), to stop reaction
Step 5: Plate Reader—data collection
The deacetylated fluorophore is excited with 360 nm light and the emitted light (460 nm) is detected on an automated fluorometric plate reader (Aquest, Molecular Devices).

The structures appear in SMILES notation.

Turning to `CC(=O)SCC(=O)c1ccc(NS(=O)(=O)c2ccc(OCCCN(C)C)cc2)nc1` [Example 1, Thioacetic acid S-(2-{6-[4-(3-dimethylamino-propoxy)-benzenesulfonylamino]-pyridin-3-yl}-2-oxo-ethyl)ester], the IC50 in assay [1] and in assay [2] was below 1000 nM throughout.

As to `CC(=O)SCC(=O)c1ccc(NS(=O)(=O)c2ccc(OCCN(C)C)cc2)nc1` [Example 2, Thioacetic acid S-(2-{6-[4-(2-dimethylamino-ethoxy)-benzenesulfonylamino]-pyridin-3-yl}-2-oxo-ethyl) ester], the IC50 in assay [1] and in assay [2] was below 1000 nM throughout.

Consider `CC(=O)SCC(=O)c1ccc(NS(=O)(=O)c2ccc(OCC(C)(C)CN(C)C)cc2)nc1` [Example 3, Thioacetic acid S-(2-{6-[4-(3-dimethylamino-2,2-dimethyl-propoxy)-benzenesulfonylamino]-pyridin-3-yl}-2-oxo-ethyl) ester], for which the IC50 (in general, the point on the concentration scale where inhibition reaches its midpoint) in assay [1] was below 1000 nM.

Take `CC(=O)SCC(=O)c1ccc(NS(=O)(=O)c2ccc(OCCCCN(C)C)cc2)nc1` [Example 4, Thioacetic acid S-(2-{6-[4-(4-dimethylamino-butoxy)-benzenesulfonylamino]-pyridin-3-yl}-2-oxo-ethyl) ester]: the IC50 in assay [1] and in assay [2] was below 1000 nM each time.
